These results are taken from US9987369B2, “Vitamin functionalized gel-forming block copolymers for biomedical applications” (INTERNATIONAL BUSINESS MACHINES CORPORATION, priority 2016, dated 2018).

In assay [1] the test system is P. aeruginosa. Kind of assay: killing efficiency / minimum bactericidal concentration. The assay is classed as cell-based, Pseudomonas aeruginosa. To be noted: single agent. As for the experimental part: Procedure for hydrogels: E. coli, P. aeruginosa, S. aureus and C. albicans were obtained from ATCC and reconstituted from its lyophilized form according to the manufacturer's protocol. Bacterial samples were cultured in Tryptic Soy Broth (TSB) solution at 37° C. under constant shaking of 300 rpm. C. albicans was culture in yeast medium at room temperature under constant shaking of 70 rpm. Prior to treatment, the bacterial sample was first inoculated and cultured to enter into log growth phase. To prepare the antimicrobial hydrogels, cationic polymer was first dissolved in filtered HPLC water in a bio-hood. […] For instance, cationic polymer VE/BnCl(1:30) or cationic polymer VE/PrBr(1:30) was dissolved by using sterile HPLC grade water to form a polymer solution at various concentrations. This solution was then used to dissolve […]1.25 to form a 4 wt. % hydrogel containing various concentrations of the cationic polymers. […] The concentration of bacterial solution was adjusted to give an initial optical density (O.D.) reading of approximately 0.07 at 600 nm wavelength on a microplate reader (TECAN, Switzerland), which corresponds to the concentration of McFarland 1 solution (3×10^8 CFU/mL). […] The plates were incubated for 24 hours at 37° C. and the number of colony-forming units (CFU) was counted. […]

In assay [2] the test system is C. albicans. Kind of assay: killing efficiency of solutions. It counts as cell-based, Candida albicans. The note with it: solution, fluconazole at 5.0 mg/L. As for the experimental part: A stock solution of cationic polymer VE/PrBr(1:15) (5 mg) in sterile HPLC grade water (10 mL) was prepared having a final concentration of 500 mg/L (500 ppm). A second stock solution of fluconazole (1 mg) in sterile HPLC grade water (100 mL) was prepared having a final concentration of 10 mg/L (10 ppm). Three solutions were prepared: (1) cationic polymer alone at 1.0MIC=250 mg/L (250 ppm) against C. albicans, (2) A cationic polymer/fluconazole solution containing VE/PrBr(1:15) at 0.5MIC=125 mg/L (125 ppm) against C. albicans and fluconazole at 2.5 mg/L (2.5 ppm), and (3) fluconazole alone at 5.0 mg/L (5 ppm). Formulation (2) was obtained by combining […] each of the stock solutions of cationic polymer and fluconazole and diluting the resulting solution with 750 microliters of sterile HPLC grade water.

For Doxycycline [DXY], the “MBC against P. aeruginosa” value in assay [1] lay within 20 to 30 µg/mL. `OC(Cn1cncn1)(Cn1cncn1)c1ccc(F)cc1F` [fluconazole, Fluconazole]: the “killing efficiency against C. albicans” value in assay [2] stood at 93.53%.
